One compound from patent publication US20250381110A1, “SKIN CARE COMPOSITION AND METHOD OF USING THE SAME” (THE PROCTER & GAMBLE COMPANY, priority 2024, published 2025) can be followed below.

The test system of one test is p21. Description: Immunostaining for p21 (percentage of p21-positive cells). In kind it is cell-based, human. On the procedure:
(§1) Immunofluorescence analyses were performed as described previously (Carroll et al.). In brief, cells were seeded on coverslips in 24-well plates and fixed in 4% formaldehyde in PBS for 10 min at room temperature followed by permeabilization in 0.5% Triton X-100 (Sigma-Aldrich) in PBS for 4 min at room temperature (Ki67 and p21) or in methanol for 4 min at −20° C. (LC3 and p62). Cells were then blocked for 1 h in 5% normal goat serum (Sigma-Aldrich) in PBS at room temperature and incubated with primary antibodies overnight at 4° C. Cells were washed three times and incubated with the appropriate secondary antibodies for 1 h at room temperature (Thermo Fisher Scientific, A31556 and A21235, 1:1000). Cells were washed, and coverslips were mounted on slides with Prolong Gold antifade mountant with DAPI (Invitrogen). Fluorescence images were obtained as described above. The following primary antibodies were used: rabbit anti-Ki67 (Abcam, ab 15580, 1:250), rabbit anti-p21 (CST, 2947, 1:1000), mouse anti-LC3 (NanoTools, 0260-100, 1:200) and rabbit anti-p62 (MBL, PM045, 1:500).

Test [1] has as its system human dermal fibroblasts (HDFs). The test is described as follows: Cell motility assay. Type of test: cell-based. The settings on record: HDFs from aged donors; 30 μM, 7 h. As to the method: HDFs were seeded in glass bottomed multiwell plates (Greiner, 662892), 24 h prior to imaging. Images were captured using a Zeiss CellDiscoverer 7 with a 5x/0.35NA lens with a 2× optovar using oblique mode brightfield with a Hamamatsu Fusion camera every 300 seconds for 5 h (1 ms exposure time), capturing 2 random fields per well. Cells were maintained at 37° C., 5% CO2 throughout experiments. 6 cells were analysed per field using the Manual Tracking plugin in FIJI/ImageJ, and shown as mean movement per cell recorded.

Test [2] has the same test system. The test is described as follows: EdU incorporation assay. In kind it is cell-based. Conditions: HDFs from aged donors; 30 μM, 7 h.
The test system is the same in test [3]. Description: Average nuclear size by immunofluorescence microscopy. Type of test: cell-based. As to the method: as §1
The subject of another test is IL-8. Description: SASP assessment, IL-8 mRNA by qPCR. In kind it is cell-based, human. The settings on record: HDFs; 30 μM for 5 h prior to IR; 11 days after IR. On the procedure:
(§2) Quantibody Human Cytokine Arrays for 20 cytokines (RayBiotech; QAH-CYT-1) were performed using conditioned media collected from primary dermal fibroblasts culture. mRNA levels of human IL-6 and IL-8 were measured by quantitative polymerase chain reaction (qPCR. Total RNA was extracted using RNeasy Mini Kit (QIAGEN, 74104). From 500 ng of total RNA, first-strand complementary DNA (cDNA) was produced using SuperScript III reverse transcriptase (Invitrogen, 18080044). Quantitative PCR was performed in a StepOnePlus Real-Time PCR system (Applied Biosystems) using Power SYBR Green PCR Master Mix (Applied Biosystems, 4367659). mRNA levels were determined with the […] and normalised to GAPDH levels.

The next test deals with IL-6. The test is described as follows: SASP assessment, IL-6 mRNA by qPCR. Type of test: cell-based, human. On the procedure: as §2
For test [4], the system named is primary human dermal fibroblasts (HDFs). Description: Mitophagy assay, mt-mKeima reporter, fluorescence microscopy. In kind it is cell-based. On the procedure: Primary human dermal fibroblasts (HDFs) were cultured in DMEM supplemented with 10 percent FBS, 100 units per milliliter penicillin/streptomycin, and 2 millimolar L-glutamine in a humidified atmosphere containing 5 percent carbon dioxide at 37 degrees Celsius. Stable expression of mt-mKeima was achieved through retroviral transduction (Kelly et al.). Cells stably expressing mt-mKeima were seeded in a 35 mm glass bottom dish (MatTek). The live-cell mt-Keima signal was obtained via widefield microscopy using the DMi8 and 2 filtersets to obtain the acidic (561 nm excitation, “red”) and pH-neutral (480 nm, “green”) mKeima signals. Using FIJI/ImageJ, a macro was applied to the mt-mKeima signal to extract mitolysosomes. In detail, images were masked by applying MaxEntropy threshold to the images obtained with 561 nm excitation to remove low mt-mKeima red signal and background. Then, images were generated by subtracting the signal of green mKeima from that of red mKeima. Resulting images were binarised with the MaxEntropy threshold algorithm to extract mitolysosomes. Mitophagy events were determined as the number of puncta per cell. Cells stably expressing pSu9-Halo-GFP seeded in a 35 glass bottom dish (MatTek) were stained with 1 μM Halo TMR ligand (Promega, G8251) for 48 h. Fluorescence images were obtained using an LSM700 confocal microscope (Zeiss). The number of mitolysosomes (GFP-Halo+puncta) per cell was quantified using proprietary plugin in Fiji/ImageJ. Both mKeima and pSu9-Halo-GFP reporters directly visualize frequency of mitophagy events (e.g., mitochondria delivered by autophagolysosomes to lysosomes for degradation) (Kelly et al.).

Test [5] concerns human dermal fibroblasts (HDFs). Description: Mitochondrial mass by Mitotracker Green staining. In kind it is cell-based. Conditions: HDFs from aged donors; 30 μM, 7 h. As to the method: The Seahorse XF Cell Mito Stress Test Kit (Agilent) was used to measure oxygen consumption rates in adult dermal fibroblasts. One day prior to the assay cells were seeded at either 4000 per well or 3000 per well. Where indicated, fibroblast plates were subjected to 20Gy IR 2 h before assay. […] HDFs were stained with 100 nM Mitotracker Green for mitochondrial density measurement. The Mito Stress Test was performed as per manufacturer's guidelines on a Seahorse XF96 Extracellular Flux analyser using previously optimized conditions. Following assay completion, cells were fixed in 4% PFA for 20 minutes. PFA was then removed, and cells were washed twice with PBS. Following fixation, cells were stained with Hoescht nucleic acid stain (Invitrogen) for 10 min before being washed twice in PBS. Fluorescence was subsequently measured using the PHERAstar FSX plate reader (BMG LABTECH) at 350/460 nm for normalization purposes. Following normalization, OCR measurements were interpreted from data generated from the Agilent Seahorse Wave software version 2.6.3.5. Basal respiration data in unstressed conditions is presented. OCR measurements were further normalised to mitochondrial density to obtain ATP production (pmol/min/mitochondria).

A further test deals with Ki67. Description: Immunostaining for Ki67 (percentage of Ki67-positive cells). Conditions: HDFs; 30 μM for 5 h prior to IR; 11 days after IR. In kind it is cell-based, human. As to the method: as §1
Where [6] appears, read: HDFs from aged donors, 30 μM, 7 h.
Setting [7] is: HDFs, treatment 5 h prior to IR.

As for `CC(=O)Oc1ccc(N2C(=O)C3C(Cc4ccccc4)NC4(C(=O)Nc5c4ccc(Cl)c5C)C3C2=O)cc1` (centres unmarked) [STOCKIN-57543], the p21 expression entry in the test with p21 (setting [6]) is “decreasing elevated p21 expression”. In addition, the “IR-associated increased p21 expression” value with p21 (setting [7]) is recorded as “mitigating IR-associated increased p21 expression”. Moreover, the cell motility result in test [1] is “improving cell motility”. The “cellular proliferation capacity (EdU incorporation)” value in test [2] is on record as “restoring cellular proliferation capacity”. For the same compound, in [3] (setting [6]), the nuclear size result was “decreasing a senescence-associated increase in nuclear size”. Also, the “IR-associated increase in nuclear size” value in [3] (setting [7]) was “mitigating IR-associated increase in nuclear size”. Further, in the test on IL-8, the “IR-associated increase in IL-8 level (mRNA)” value is “mitigating IR-associated increases in levels of the SASP factors IL-6 and IL-8”. The “levels of the SASP factor IL-6 (mRNA)” value in the test on IL-6 (setting [6]) was “decreasing levels of the SASP factor IL-6”. Also, the “IR-associated increase in IL-6 level (mRNA)” value with IL-6 (HDFs, 30 μM for 5 h prior to IR, 11 days after IR) was “mitigating IR-associated increases in levels of the SASP factors IL-6 and IL-8”. For the same compound, the “functional mitophagy (mitophagy events)” value in [4] (setting [6]) is given as “restoring functional mitophagy”. Besides, the “rescue of suppressed basal mitophagy in the absence of p62” value in [4] (HDFs with p62 knockdown) is recorded as “unable to rescue the suppression of basal mitophagy”. Further, the “IR-associated decrease in mitophagy” value in test [4] (HDFs, 30 μM for 5 h prior to 20 Gy IR) is “preventing IR-associated decrease in mitophagy”. Moreover, in test [5], the mitochondrial mass entry is “restoring mitochondrial mass”. Besides, the “IR-associated decrease in cellular proliferation capacity (Ki67)” value in the test on Ki67 is “mitigating IR-associated decrease in cellular proliferation capacity”.
